According to US8461410B2, “Wound dressing materials comprising complexes of anionic polysaccharides with silver” (Ethicon, Inc., priority 2002, dated 2013):

Key:
Staphylococcus aureus = test: Zone of inhibition test of bactericidal activity (Procedure 1); assay type: cell-based; details: 2 cm x 2 cm sample on inoculated DSA plate, 37° C., read every 24 hours; FIGS. 1 and 2
Procedure: (§1) Six 2 cm×2 cm squares of each sample were cut out in sterile conditions. On day one of the experiment cultures of both Pseudomonas aeruginosa and Staphylococcus aureus were incubated aerobically at 37° C. for 24 hours on Diagnostic Sensitivity Agar (DSA). After 24 hours test samples were each placed on a DSA plate and were immediately wetted with 0.5 mls of a buffer solution. Three squares of sample were placed on plates inoculated with Pseudomonas aeruginosa and three were placed on plates inoculated with Staphylococcus aureus. The plates were then incubated at 37° C. for 24 hours. The zone of inhibited growth around the sample was then measured using callipers and the test sample was placed on a new inoculated DSA plate. A swab test was carried out on the area beneath the sample to determine if the sample was bacteriostatic if not bactericidal by smearing the swab on a DSA plate and incubating it for 24 hours and then examining the growth. The samples were transferred onto fresh inoculated plates with the above procedure being carried out every 24 hours for 72 hours as long as the samples remain intact.
(§2) As a negative control, a freeze dried sponge of 45% ORC/55% collagen without any silver was tested.

Pseudomonas aeruginosa = test: as above; assay type: cell-based; details: 2 cm x 2 cm sample on inoculated DSA plate, 37° C., read every 24 hours; FIG. 3
Procedure: as §1, §2

O=[N+]([O-])[O-].[Ag+] [silver nitrate solution (0.5%), silver nitrate]
bactericidal effect / zone of inhibition against Staphylococcus aureus (Staphylococcus aureus): zones of inhibition were observed
bactericidal effect / zone of inhibition against Pseudomonas aeruginosa (Pseudomonas aeruginosa): zones of inhibition were observed
